Measured values: patent publication US8207137B2, “Method of inhibiting angiogenesis or invasion or formation of metastases” (INSERM, priority 2001, dated 2012)

Columns and labels:
[1] = tested on: B16F10; assay: Cell proliferation, tritiated thymidine incorporation; format: cell-based, murine; conditions: B16F10 cancer cells, mean±SEM
Procedure: (§1) The cells were cultured at the rate of 20,000 cells per well (96-well plate, Greiner) in the complete medium. After 24 h, the cells were cultured in a medium containing a concentration lower by half than that corresponding to the complete medium to induce the cell in phase G0/G1 of proliferation for 24 supplementary hours. The cells were then cultured for 30 h with complete medium in the presence or without the presence of AMEP. Tritiated thymidine (1 μCi per well) was then added to the cells and incubated for 18 hours. Incorporation of the tritiated thymidine by the cells was quantified by filter paper according to the protocol described for the use of a Skatron (Skatron, Lier, Norway). Radioactivity was then determined by counting after addition of scintillation liquid. The results were expressed as a percentage in relation to the control.

[2] = tested on: MDA MB 231 subcutaneous solid tumors; assay: Quantification of tumoral angiogenesis (CD31 immunohistochemistry and image analysis); format: in vivo, nude mice
Procedure: The tumor tissues were fixed in ethanol. Sections of 5 μm were prepared in paraffin. The endogenous peroxidase was extinguished by 3% of H2O2 for 10 minutes so that the sections could be used in immunohistochemistry. After washing the sections with distilled water then saturation with 1:10 Optimax serum (BioGenex, San Ramon, Calif.) for 10 minutes, the slides were incubated for 1 h with an anti-CD31 rat antibody (endothelial cell adhesion molecule) at 1:50. After two washings with Optimax for 4 minutes, the slides were incubated with an anti-rat goat polyclonal antibody coupled to biotin (1/50) followed by two 4-minute washings with Optimax. The slides were then treated with a DAB chromogenic substrate for 10 minutes, washed with distilled water, counterstained with Mayer's hematoxylin and mounted on Pertex. All of the slides were immunotagged and counterstained on the same day to ensure a standardized intensity of the tagging.
For each animal, a representative histological sample of the sections tagged with CD31 was subjected to image analysis using an AxiophotZeiss microscope (Germany) and a Sony 3CCD camera (resolution 768×576 pixels). Selection of an enlargement×100 allowed digitization of the totality of the sample. […] The images were analyzed with a specific Linux-based program producing a quantitative index from 0 to 255. […]

[3] = tested on: 3T3; assay: Cell proliferation, tritiated thymidine incorporation; format: cell-based; conditions: 3T3, murine fibroblasts, mean±SEM
Procedure: as §1

[4] = tested on: MDA-MB-231; assay: as above; format: cell-based; conditions: MDA-MB-231, human cancer cells, mean±SEM
Procedure: as §1

[5] = tested on: HMVEC; assay: as above; format: cell-based; conditions: human endothelial cells, mean±SEM
Procedure: as §1

[6] = tested on: C51; assay: as above; format: cell-based; conditions: C51, murine cancer cells, mean±SEM
Procedure: as §1

[7] = tested on: HMVEC-d; assay: as above; format: cell-based; conditions: human endothelial cells, mean±SEM
Procedure: as §1

[8] = tested on: HMEC-1 cells; assay: Formation of capillary structures in fibrin gel, Cytodex beads model; format: cell-based, human
Procedure: The second model used beads on the order of 150 μm according to the technique described by Nehl et al. The cells used were HMEC-1 since CPAE could not be used in this model. The HMEC-1 cells cannot, however, be employed in the previously described model. The HMEC-1 cells adhere to the Cytodex 3 beads (Sigma) when the cells are incubated with the beads in the complete medium for 4 h at 37° C. The beads were then resuspended in a large volume of complete medium to have 30 cells/beads and agitated for 5 minutes every 30 minutes at 30 rpm for 12 h, followed by a continuous culture at the same rate for 4 days. When the entire surface of the beads was covered by cells, the beads were centrifuged at 800 g for 5 minutes to concentrate and incorporate them in a fibrin gel the same as that described for the preceding model, and the same as the methods of quantification and analysis of the results. In contrast to the model used for the CPAE, the capillary structures only appeared after 3 days of culture at 37° C.

[9] = tested on: CPAE cells (calf pulmonary artery endothelial cells); assay: Adhesion of CPAE endothelial cells to fibrinogen, vitronectin and fibronectin; format: cell-based, bovine
Procedure: First technique: punctual incubation of the endothelial cells with AMEP during the test.
The CPAE were detached from the culture plates by incubation with 1.5 mM EDTA and resuspended at the rate of 5×10^5 cells/ml in the adhesion buffer (140 mM NaCl, 10 mM Hepes, 5 mM glucose, 5.4 mM KCl, 2 mM CaCl2, 1 mM MgCl2, 1 mM MnCl2, pH 7.4). […] Dutcher) that had been incubated in advance for one night at 4° C. with 50 μl of purified fibrinogen (40 μg/ml in PBS; Kabi), 10 μg/ml of vitronectin (Sigma); 30 μg/ml of fibronectin (Sigma) and 1% of BSA (bovine serum albumin) as negative control. After 20 minutes of incubation of the CPAE cells at 37° C., the plate was washed twice with 200 μl of adhesion buffer and the nonspecific sites were saturated with PBS supplemented with 1% of BSA for 1 hour at 37° C. The plate was then washed again twice with the adhesion buffer containing 1% of BSA. The nonadherent cells were eliminated by washing the wells three times with 200 μl of adhesion buffer plus 1% of BSA. Measurement of the phosphatase activity of the cells enabled quantification of the adherent cells. In brief, 100 μl of paranitrophenol phosphate (Sigma) at 3 mg/ml in the acetate buffer pH containing 0.1% of X100 Triton was added to the wells and incubated for 2 h at 37° C. The reaction was stopped by the addition of 1N NaOH. The release of paranitrophenol, which indicates the number of adherent cells, was measured after reading of the absorbance at 405 nm with an ELISA reader (Titertek Twinreader). […] The remainder of the protocol was identical to the that described above with the exception that no additional incubation of the cells with AMEP was performed.

[10] = tested on: CPAE; assay: Cell proliferation, tritiated thymidine incorporation; format: cell-based, Bovine
Procedure: as §1

[11] = cells incubated punctually for 30 minutes prior to adhesion test, 1.4-kDa peptide 1 μg/ml, AMEP 10 μg/ml (comparable molar concentration)
[12] = cells preincubated for 24 h, same molar concentration (AMEP 10 μg/ml, 1.4-kDa peptide 1 μg/ml)

Question: What does the source list for “AMEP: disintegrin domain of human metargidin (Met-420 to Glu-511, SEQ ID NO. 2), 91 amino acids, 9.7 kDa; recombinant or expressed in vivo by gene electrotransfer”?
Answer: % inhibition of cell proliferation by AMEP (5 μg/ml) [1]: 74.3 ± 7.0%; statistical index of tumor vascularization, Mean ([2]; CD31-tagged tumor sections, index scale 0 to 255, control group 2.96): 1.38; inhibition of the number of vessels within the tumors ([2]; tumors of nude mice treated with AMEP versus control): 53.4%; % inhibition of cell proliferation by AMEP (5 μg/ml) [3]: 9.1 ± 2.2%; % inhibition of cell proliferation by AMEP (5 μg/ml) [4]: 17.5 ± 0.5%; % inhibition of cell proliferation by AMEP (5 μg/ml) [5]: 52.6 ± 3.1%; % inhibition of cell proliferation by AMEP (5 μg/ml) [6]: 0.5 ± 1.1%; % inhibition of cell proliferation by AMEP (5 μg/ml) [7]: 54.2 ± 2.1%; reduction in the size of the tubes (capillary structures) ([8]; HMEC-1 on beads in fibrin gel, 5 μg/ml, after 10 days): 90%; effect on formation of capillary structures ([8]; HMEC-1 on beads in fibrin gel, 5 μg/ml, after three days of culture): inhibitory effect; formation of capillary structures ([8]; model using HMEC-1, in the presence of AMEP): total inhibition; inhibition of adhesion of endothelial cells on fibrinogen [9, 11]: no significant effect; inhibition of adhesion of endothelial cells on vitronectin [9, 11]: no significant effect; inhibition of adhesion of endothelial cells on fibrinogen [9, 12]: 30%; inhibition of adhesion of endothelial cells on fibronectin [9, 12]: 30%; inhibition of adhesion of endothelial cells on vitronectin [9, 12]: 30%; inhibition of proliferation of endothelial cells ([10]; 2 μg/ml): 40%; inhibition of proliferation of endothelial cells ([10]; 5 μg/ml (maximal effect)): 60%; inhibition of proliferation of endothelial cells ([10]; 10 μg/ml, compared with 60% at 5 μg/ml): identical percentage; % inhibition of cell proliferation by AMEP (5 μg/ml) ([10]; bovine endothelial cells, 5 μg/ml, mean±SEM): 60.4 ± 3.2%
